Data set [1] deals with Trichophyton mentagrophytes. The data set can be described thus: Minimum inhibitory concentration, agar dilution method, Trichophyton mentagrophytes. The class given is cell-based. The settings on record: Sabouraud's dextrose medium; for MIC: Trichophyton mentagrophytes. The method, then:
(§1) The minimum inhibitory concentrations (μg/ml), relative to test fungi, of some of the typical compounds in this invention produced in Examples to be described later were measured, and the results are tabulated below.
(§2) *The minimum inhibitory concentrations were measured by an agar dilution
(§3) method using a Sabouraud's dextrose medium in accordance with a standard
(§4) method of Nippon Kagaku Ryoho Gakkai (Chemical Therapy Academy).
(In general: Agar dilution tests growth on a series of plates holding different concentrations.)

The test system of the next data set is Trichophyton rubrus. Nature of the data set: Minimum inhibitory concentration, agar dilution method, Trichophyton rubrus. It counts as cell-based. The settings on record: Sabouraud's dextrose medium; for MIC: Trichophyton. The method, then:
as §1, §2, §3, §4

The next data set has as its system Candida albicans. The data set can be described thus: Minimum inhibitory concentration, agar dilution method, Candida albicans. The class given is cell-based. The settings on record: Sabouraud's dextrose medium; for MIC: Candida albicans. The method, then:
as §1, §2, §3, §4

A further data set deals with Cystococcus neoformans. The data set can be described thus: Minimum inhibitory concentration, agar dilution method, Cystococcus neoformans. The class given is cell-based. Particulars: Sabouraud's dextrose medium. The method, then: as §1, §2, §3, §4
The next data set is described as follows: Acute toxicity to mice. Particulars: mouse, in vivo, intravenous administration. The method, then: The compound in this invention is low in toxicity. For example, acute toxicities LD50 to mice of the compounds in Examples 1 and 4 to be described later are both more than 100 mg/kg (intravenous administration).
Data set [2] in a line: Stability in serum (thin layer chromatography and biological verification using Candida albicans). The class given is in vitro ADME. Particulars: left to stand in serum at 37° C. for 4 hours; TLC and biological verification using Candida albicans.

In brackets after ≈: the same amount, converted by molar mass.

Consider 26 compounds from US5093480A, “Azoxy compounds” (Kowa Company, Ltd., priority 1988, dated 1992).

Regarding “2-(2,4-dichlorodiphenylacetylhydrazono)-2-dioxo-KA-7367A [Example 79]”, the “Minimum inhibitory concentration, Trichophyton mentagrophytes” value in data set [1] was 3.1 µg/mL. The “Minimum inhibitory concentration, Trichophyton rubrus” value with Trichophyton rubrus came out at 1.6 µg/mL. In the data set with Candida albicans, the “Minimum inhibitory concentration, Candida albicans” value came out at 1.6 µg/mL. The “Minimum inhibitory concentration, Cystococcus neoformans” value in the data set on Cystococcus neoformans came to 6.25 µg/mL.
With “2-thenoylhydrazono-2-deoxo-KA-7367A [Example 68]”, the “Minimum inhibitory concentration, Trichophyton mentagrophytes” value in data set [1] worked out at 6.25 µg/mL. The “Minimum inhibitory concentration, Trichophyton rubrus” value in the data set with Trichophyton rubrus is 6.25 µg/mL. Besides, the “Minimum inhibitory concentration, Candida albicans” value in the data set on Candida albicans was 3.2 µg/mL. Also, in the data set with Cystococcus neoformans, the “Minimum inhibitory concentration, Cystococcus neoformans” value was determined as 6.25 µg/mL.
The term LD50 denotes the dose at which mortality reaches 50%. Low values mean a more toxic substance, high ones a less toxic substance. The term MIC denotes the lowest concentration that inhibits growth of the organism. Higher therefore signals weaker potency. For `CCCC/C=C/[N+]([O-])=NC(C)C(C)=NO` (stereo not shown) [Example 1, 2-hydroxyimino-2-deoxo-KA-7367A], in the data set “Acute toxicity to mice”, the LD50 is over 100 mg/kg. Also, the MIC in data set [1] was 12.5 µg/mL (≈ 58.6 µM); with Trichophyton rubrus, 3.1 µg/mL (≈ 14.5 µM); in the data set with Candida albicans, 12.5 µg/mL (≈ 58.6 µM); in the data set with Cystococcus neoformans, 25 µg/mL (≈ 117 µM).
As for `CCCC/C=C/[N+]([O-])=NC(C)C(C)=NOCCOCC` (stereo not shown) [Example 3, 2-(2-ethoxy-ethoxyimino)-2-dioxo-KA-7367A], the MIC in data set [1] is 25 µg/mL (≈ 87.6 µM); with Trichophyton rubrus, 6.25 µg/mL (≈ 21.9 µM); against Candida albicans, 25 µg/mL (≈ 87.6 µM); against Cystococcus neoformans, 50 µg/mL (≈ 175 µM).
Consider `CCCC/C=C/[N+]([O-])=NC(C)C(C)=NOCC(=O)O` (stereo not shown) [Example 4, 2-carboxymethoxyimino-2-deoxo-KA-7367A], for which the LD50 in the data set “Acute toxicity to mice” was over 100 mg/kg. Also, the MIC stood at 12.5 µg/mL (≈ 46.1 µM) in data set [1], 3.1 µg/mL (≈ 11.4 µM) against Trichophyton rubrus, 12.5 µg/mL (≈ 46.1 µM) against Candida albicans and 25 µg/mL (≈ 92.1 µM) against Cystococcus neoformans.
Turning to `CCCC/C=C/[N+]([O-])=NC(C)C(C)=NOC(C)(C)C(=O)O` (stereo not shown) [Example 5, 2-(1-carboxy-1-ethylmethoxyimino)-2-deoxo-KA-7367A], the MIC in data set [1] amounted to 12.5 µg/mL (≈ 41.8 µM); with Trichophyton rubrus, 3.1 µg/mL (≈ 10.4 µM); against Candida albicans, 12.5 µg/mL (≈ 41.8 µM); against Cystococcus neoformans it was 25 µg/mL (≈ 83.5 µM).
For `CCCC/C=C/[N+]([O-])=NC(C)C(C)=NOC(C)=O` (stereo not shown) [Example 24, 2-acetoxyimino-2-deoxo-KA-7367A], the MIC in data set [1] was 12.5 µg/mL (≈ 49 µM); in the data set on Trichophyton rubrus, 6.25 µg/mL (≈ 24.5 µM); against Candida albicans, 25 µg/mL (≈ 97.9 µM); against Cystococcus neoformans it was 50 µg/mL (≈ 196 µM).
For the compound `CCCC/C=C/[N+]([O-])=NC(C)C(C)=NOC(=O)c1ccccc1` (stereo not shown) [Example 25, 2-benzoyloxyimino-2-deoxo-KA-7367A], the minimum inhibitory concentration (MIC) came out at 12.5 µg/mL (≈ 39.4 µM) in data set [1], 3.1 µg/mL (≈ 9.77 µM) in the data set with Trichophyton rubrus, 50 µg/mL (≈ 158 µM) with Candida albicans and 50 µg/mL (≈ 158 µM) against Cystococcus neoformans.
Consider `CCCC/C=C/[N+]([O-])=NC(C)C(C)=NOC(=O)c1ccc(Cl)cc1` (stereo not shown) [Example 27, 2-(p-chlorobenzoyloxyimino)-2-deoxo-KA-7367A], for which the minimum inhibitory concentration (MIC) in data set [1] turned out to be 12.5 µg/mL (≈ 35.5 µM); in the data set on Trichophyton rubrus it was 6.25 µg/mL (≈ 17.8 µM); in the data set on Candida albicans it was 100 µg/mL (≈ 284 µM); in the data set on Cystococcus neoformans, 100 µg/mL (≈ 284 µM).
Turning to `CCCC/C=C/[N+]([O-])=NC(C)C(C)=NNC(N)=O` (stereo not shown) [Example 34, 2-semicarbazono-2-deoxo-KA-7367A], the MIC in data set [1] was determined as 3.1 µg/mL (≈ 12.1 µM); with Trichophyton rubrus, 1.6 µg/mL (≈ 6.27 µM); in the data set on Candida albicans it was 3.1 µg/mL (≈ 12.1 µM); against Cystococcus neoformans it was 3.1 µg/mL (≈ 12.1 µM).
Consider `CCCC/C=C/[N+]([O-])=NC(C)C(C)=NNC(N)=S` (stereo not shown) [Example 35, 2-thiosemicarbazono-2-deoxo-KA-7367A], for which the MIC in data set [1] amounted to 6.25 µg/mL (≈ 23 µM); against Trichophyton rubrus it was 3.1 µg/mL (≈ 11.4 µM); in the data set on Candida albicans it was 3.1 µg/mL (≈ 11.4 µM); with Cystococcus neoformans, 6.25 µg/mL (≈ 23 µM).
In the case of `CCCC/C=C/[N+]([O-])=NC(C)C(C)=NNC(C)=O` (stereo not shown) [Example 43, 2-acetylhydrazono-2-deoxo-KA-7367A], the MIC in data set [1] came to 6.25 µg/mL (≈ 24.6 µM); in the data set with Trichophyton rubrus, 3.1 µg/mL (≈ 12.2 µM); against Candida albicans, 1.6 µg/mL (≈ 6.29 µM); with Cystococcus neoformans it was 3.1 µg/mL (≈ 12.2 µM).
On to `CCCC/C=C/[N+]([O-])=NC(C)C(C)=NNC(=O)Cn1ccnc1` (stereo not shown) [Example 47, 2-(1-imidazolylacetylhydrazono)-2-deoxo-KA-7367A], for which the MIC was 25 µg/mL (≈ 78 µM) in data set [1], 12.5 µg/mL (≈ 39 µM) in the data set on Trichophyton rubrus, 6.25 µg/mL (≈ 19.5 µM) against Candida albicans and 50 µg/mL (≈ 156 µM) in the data set on Cystococcus neoformans.
`CCCC/C=C/[N+]([O-])=NC(C)C(C)=NNC(=O)Cc1cccnc1` (stereo not shown) [Example 48, 2-(3-pyridylacetylhydrazono)-2-deoxo-KA-7367A]: the MIC in data set [1] worked out at 3.1 µg/mL (≈ 9.35 µM); against Trichophyton rubrus it was 1.6 µg/mL (≈ 4.83 µM); against Candida albicans, 1.6 µg/mL (≈ 4.83 µM); against Cystococcus neoformans, 6.25 µg/mL (≈ 18.9 µM).
For the compound `CCCC/C=C/[N+]([O-])=NC(C)C(C)=NNC(=O)Cc1ccc(Cl)cc1Cl` (stereo not shown) [Example 49, 2-(2,4-dichlorophenylacetylhydrzono)-2-deoxo-KA-7367A], the MIC in data set [1] came out at 3.1 µg/mL (≈ 7.76 µM); with Trichophyton rubrus, 1.6 µg/mL (≈ 4.01 µM); with Candida albicans, 1.6 µg/mL (≈ 4.01 µM); in the data set with Cystococcus neoformans it was 6.25 µg/mL (≈ 15.7 µM).
As for `CCCC/C=C/[N+]([O-])=NC(C)C(C)=NNC(=O)Cc1cccc2ccccc12` (stereo not drawn) [Example 52, 2-(alpha-naphthylacetylhydrazono)-2-deoxo-KA-7367A], the MIC in data set [1] is 6.25 µg/mL (≈ 16.4 µM); against Trichophyton rubrus, 3.1 µg/mL (≈ 8.15 µM); against Candida albicans it was 3.1 µg/mL (≈ 8.15 µM); against Cystococcus neoformans, 12.5 µg/mL (≈ 32.9 µM).
Take `CCCC/C=C/[N+]([O-])=NC(C)C(C)=NNC(=O)CN1CCN(C(C)=O)CC1` (stereo not shown) [Example 53, 2-(4-acetylpiperazinyl-acetylhydrazono)-2-deoxo-KA-7367A]: the MIC in data set [1] is 6.25 µg/mL (≈ 16.4 µM); in the data set with Trichophyton rubrus, 3.1 µg/mL (≈ 8.15 µM); against Candida albicans, 3.1 µg/mL (≈ 8.15 µM); in the data set on Cystococcus neoformans, 12.5 µg/mL (≈ 32.9 µM).
Take `CCCC/C=C/[N+]([O-])=NC(C)C(C)=NNC(=O)CN1CCN(C(=O)Cc2c(Cl)cccc2Cl)CC1` (stereo not shown) [Example 54, 2-[4-(2,6-dichlorophenylacetyl)-1-piperazinylacetylhydrazino]-2-deoxo-KA-7367A]: the MIC in data set [1] was determined as 6.25 µg/mL (≈ 11.9 µM); in the data set with Trichophyton rubrus it was 3.1 µg/mL (≈ 5.9 µM); in the data set on Candida albicans, 3.1 µg/mL (≈ 5.9 µM); against Cystococcus neoformans, 12.5 µg/mL (≈ 23.8 µM).
Turning to `CCCC/C=C/[N+]([O-])=NC(C)C(C)=NNC(=O)Cc1c(F)cccc1F` (stereo not shown) [Example 61, 2-[(2,6-difluorophenyl)acetylhydrazono]-2-deoxo-KA-7367A], the MIC in data set [1] was found to be 3.1 µg/mL (≈ 8.46 µM); in the data set on Trichophyton rubrus, 1.6 µg/mL (≈ 4.37 µM); against Candida albicans it was 0.8 µg/mL (≈ 2.18 µM); in the data set on Cystococcus neoformans, 6.25 µg/mL (≈ 17.1 µM).
For `CCCC/C=C/[N+]([O-])=NC(C)C(C)=NNC(=O)Cc1c(OC)cccc1OC` (stereo not shown) [Example 62, 2-[(2,6-dimethoxyphenyl)acetylhydrazono]-2-deoxo-KA-7367A], in that order: 6.25 µg/mL (≈ 16 µM), 3.1 µg/mL (≈ 7.94 µM), 1.6 µg/mL (≈ 4.1 µM) and 12.5 µg/mL (≈ 32 µM).
For `CCCC/C=C/[N+]([O-])=NC(C)C(C)=NNC(=O)c1ccco1` (stereo not shown) [Example 67, 2-(2-furylcarbonylhydrazono)-2-deoxo-KA-7367A], in that order: 3.1 µg/mL (≈ 10.1 µM), 3.1 µg/mL (≈ 10.1 µM), 1.6 µg/mL (≈ 5.22 µM) and 6.25 µg/mL (≈ 20.4 µM).
On the same counts, the results for `CCCC/C=C/[N+]([O-])=NC(C)C(C)=NNC(=O)c1ccncc1` (stereo not shown) [Example 70, 2-isonicotinoylhydrazono-2-deoxo-KA-7367A] are 25 µg/mL (≈ 78.8 µM), 12.5 µg/mL (≈ 39.4 µM), 25 µg/mL (≈ 78.8 µM) and 50 µg/mL (≈ 158 µM).
With `CCCC/C=C/[N+]([O-])=NC(C)C(C)=NNC(=O)c1cccnc1` (stereo not shown) [Example 71, 2-nicotinoylhydrazono-2-deoxo-KA-7367A], the MIC was 6.25 µg/mL (≈ 19.7 µM) in data set [1], 6.25 µg/mL (≈ 19.7 µM) with Trichophyton rubrus, 6.25 µg/mL (≈ 19.7 µM) with Candida albicans and 12.5 µg/mL (≈ 39.4 µM) in the data set on Cystococcus neoformans.
With `CCCC/C=C/[N+]([O-])=NC(C)C(C)=NNC(=O)Cc1ccc(Cl)cc1` (stereo not shown) [Example 74, 2-(p-chlorophenylacetylhydrazono)-2-deoxo-KA-7367A], the MIC is 6.25 µg/mL (≈ 17.1 µM) in data set [1], 3.1 µg/mL (≈ 8.5 µM) against Trichophyton rubrus, 1.6 µg/mL (≈ 4.39 µM) against Candida albicans and 6.25 µg/mL (≈ 17.1 µM) against Cystococcus neoformans.
Turning to `CCCC/C=C/[N+]([O-])=NC(C)C(C)=NNC(=O)C(c1ccc(Cl)cc1)c1ccccc1Cl` (stereo not shown) [Example 78, 2-(2,4'-dichlorodiphenylacetylhydrazono)-2-deoxo-KA-7367A], the MIC in data set [1] turned out to be 3.1 µg/mL (≈ 6.52 µM); against Trichophyton rubrus, 3.1 µg/mL (≈ 6.52 µM); against Candida albicans it was 0.8 µg/mL (≈ 1.68 µM); against Cystococcus neoformans, 6.25 µg/mL (≈ 13.1 µM).
Turning to `CCCC/C=C/[N+]([O-])=NC(C)C(C)=O` (stereo not shown) [KA-7367A], in data set [2], the decomposition in serum entry is recorded as “almost decomposed”.
